The record followed here is patent publication US20170081324A1 (priority 2015, published 2017).

Each structure is given as a SMILES string. Read-outs that look alike come from different tables or passages of the source. Bounds are passed on as bounds.

Test [1] deals with influenza A virus (IAV) A/Aichi/2/68 (H3N2) on MDCK cells. Briefly: microbe, parasite or virus in culture. Particulars: 48 h. Type of test: cell-based, influenza A virus A/Aichi/2/68 (H3N2).
In test [2] the target is whole RNP complex (viral RNPs) of IAV strain A/PR/8/34 (Influenza A virus, UniProt P03428). Briefly: biochemical.
whole RNP complex (viral RNPs) of IAV strain A/PR/8/34, sequence (P03428 whole entry, looked up, one chain of several): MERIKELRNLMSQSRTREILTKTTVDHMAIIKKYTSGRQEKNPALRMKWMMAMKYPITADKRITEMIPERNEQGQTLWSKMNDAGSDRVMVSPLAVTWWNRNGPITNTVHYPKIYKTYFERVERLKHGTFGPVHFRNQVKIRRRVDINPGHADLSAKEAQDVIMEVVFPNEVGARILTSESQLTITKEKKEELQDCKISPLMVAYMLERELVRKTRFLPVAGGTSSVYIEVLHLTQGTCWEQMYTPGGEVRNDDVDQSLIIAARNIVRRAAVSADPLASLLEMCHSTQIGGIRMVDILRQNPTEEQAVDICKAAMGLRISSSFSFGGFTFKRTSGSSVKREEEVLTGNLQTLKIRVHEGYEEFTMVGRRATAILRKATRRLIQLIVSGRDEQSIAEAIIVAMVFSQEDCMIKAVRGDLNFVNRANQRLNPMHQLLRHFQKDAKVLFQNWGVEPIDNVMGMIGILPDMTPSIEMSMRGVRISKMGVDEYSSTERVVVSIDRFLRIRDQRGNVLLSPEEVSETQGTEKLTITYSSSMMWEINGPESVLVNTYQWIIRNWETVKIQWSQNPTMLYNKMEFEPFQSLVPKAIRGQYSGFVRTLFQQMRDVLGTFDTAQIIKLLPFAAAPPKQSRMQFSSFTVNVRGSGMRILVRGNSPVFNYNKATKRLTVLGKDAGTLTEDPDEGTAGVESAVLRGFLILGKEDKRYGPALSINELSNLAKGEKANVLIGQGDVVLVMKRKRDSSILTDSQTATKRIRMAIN

Regarding `CNc1nc(-c2ccc3n[nH]c(=O)n3c2)ncc1F`, the IC50 in test [1] (read-out: CPE) is above 50 µM; in test [2] it was above 33.3 µM.

Take `COC(=O)[C@@H]1CCC[C@H](Nc2nc(-c3ccc4n[nH]c(=O)n4c3)ncc2F)C1`: the values for the IC50 in test [1] (read-out: CPE) and in test [2] were above 50 µM and above 33.3 µM, respectively.

Consider `CC(C)[C@H](Nc1nc(-c2ccc3n[nH]c(=O)n3c2)ncc1F)C(=O)O`, for which the IC50 in test [1] (read-out: CPE) is above 50 µM; in test [2], above 33.3 µM.

For `O=c1[nH]nc2ccc(-c3ncc(F)c(NCC4CC4)n3)cn12`, the results for the IC50 in test [1] (read-out: CPE) and in test [2] were above 50 µM and above 33.3 µM, respectively.

For the compound `COC(=O)CC(Nc1nc(-c2ccc3n[nH]c(=O)n3c2)ncc1F)C1CC1` (centres unmarked), the IC50 in test [1] (read-out: CPE) was above 50 µM.

Regarding `O=C(O)CC(Nc1nc(-c2ccc3n[nH]c(=O)n3c2)ncc1F)C1CC1` (centres unmarked), the IC50 in test [1] (read-out: CPE) was above 50 µM; in test [2], above 25 µM.

On to `O=c1[nH]nc2ccc(-c3ncc(F)c(NC4CCCCC4)n3)cn12`, for which the IC50 in test [1] (read-out: CPE) was above 50 µM.

For `O=C(N[C@@H]1CCC[C@H](Nc2nc(-c3ccc4n[nH]c(=O)n4c3)ncc2F)C1)N1CCCC1`, in test [1] (read-out: CPE IC50), the IC50 is 9.1 µM.

`CC(C)[C@@H](CC(=O)O)Nc1nc(-c2ccc3n[nH]c(=O)n3c2)ncc1F`: the IC50 in test [1] (read-out: CPE) is above 50 µM; in test [2], above 33.3 µM.

For `CC(C)Nc1nc(-c2ccc3n[nH]c(=O)n3c2)ncc1F`, the IC50 in test [1] (read-out: CPE) is above 50 µM; in test [2], 44.9 µM.

Turning to `O=c1[nH]nc2ccc(-c3ncc(F)c(NCCO)n3)cn12`, the IC50 in test [1] (read-out: CPE) was above 50 µM.

With `COC(=O)C[C@@H](Nc1nc(-c2ccc3n[nH]c(=O)n3c2)ncc1F)C(C)C`, the IC50 in test [1] (read-out: CPE) is above 50 µM.

Turning to `O=C(N[C@@H]1CCC[C@H](Nc2nc(-c3cccc4n[nH]c(=O)n34)ncc2F)C1)N1CCCC1` [reference compound], the IC50 in test [1] (read-out: CPE) is above 50 µM.

For `COC(=O)CCCCCNc1nc(-c2ccc3n[nH]c(=O)n3c2)ncc1F`, the IC50 was 39.3 µM in test [1] (read-out: CPE IC50) and above 33.3 µM in test [2].

Turning to `CC(C)C(C)Nc1nc(-c2ccc3n[nH]c(=O)n3c2)ncc1F` (centres unmarked), the results for the IC50 in test [1] (read-out: CPE) and in test [2] were above 50 µM and 73.2 µM, respectively.

Consider `O=C(O)[C@@H]1CCC[C@H](Nc2nc(-c3ccc4n[nH]c(=O)n4c3)ncc2F)C1`, for which the IC50 is above 50 µM in test [1] (read-out: CPE) and 14.3 µM in test [2].

`O=C(O)CCCCCNc1nc(-c2ccc3n[nH]c(=O)n3c2)ncc1F`: the IC50 in test [1] (read-out: CPE IC50) is above 100 µM; in test [2], 149 µM.

On to `COC(=O)[C@@H](Nc1nc(-c2ccc3n[nH]c(=O)n3c2)ncc1F)C(C)C`, for which, in test [1] (read-out: CPE IC50), the IC50 came to 38.5 µM.
